Measured values taken from patent publication US12521438B2, “SMARCA degraders and uses thereof” (Kymera Therapeutics, Inc., priority 2019, dated 2026).

Assays:
[1] = biological target: T1, SMARCA4 (Homo sapiens, UniProt P51532); experiment: SMARCA4 Western blot MV4-11 degradation; assay type: cell-based; conditions: MV4-11 cells, 24 hours; for Dmax: read-out: SMARCA4 WB MV411 degradation 24h: Average Dmax %; for DC50: read-out: SMARCA4 WB MV411 degradation 24h: Average external-Abs DC50
T1 construct: endogenous in cells; host or cells: MV4-11
Protocol: Example 10. SMARCA2 and SMARCA 4 Western Blot MV4-11 Degradation
Cells were seeded into 6-well plates (MV4-11: 4×10^6 cells/well/1 ml) and 1 ml of 2× compound solution was added into the well to make the final concentration and the plates were mixed well and incubated for 24 hours (No cytotoxicity was observed). The cell were collected with media and spun at 3000 rpm for 5 minutes. The supernatant was aspirated and the well and the cells were washed with cold PBS once and combined for centrifugation again; the supernatant aspirated again. 200 ul pre-chilled RIPAlysis buffer (Boston BioProducts BP-115D) with protease/phosphatase inhibitor (Roche 05892791001/Roche 04906837001) was directly added into the tube to lyze the cells for 20 minutes on ice. The cell lysate were collected into EP tubes and spun at 13000 rpm for 20 minutes and 72 ul supernatant was transferred to a fresh EP tube containing 18 ul of 5× loading buffer (Beyotime Bio P0015) to make the loading samples. The samples were heated to 100° C. for 10 minutes and cooled to RT and microcentrifuged. 20 ul of samples were loaded onto SDS-PAGE gel (Novex, WG1402BOX) and the gel was run at 80 V for 20 minutes and 120 V for 1.5 hours. The samples were electrotransfer to a NC membrane using wet-transfer method with 250 mA for 2.5 hours. The membrane was blocked with LICOR blocking buffer (LI-COR, 927-50000) for 1 hour. The membrane was washed three times with TBST (CST #9997S), 5 minutes each. Incubation was performed with primary antibody prepared in blocking buffer with 0.1% Tween-20 (Solarbio, P8220) at 4° C. overnight (Anti-SMARCA2/BRM antibody (ab15597) 1:500; Anti-BRG1 antibody [EPR3912] (ab108318) 1:1000; Rabbit anti-Baf180 antibody [EPR15860] (Abcam,ab196022) 1:1000; mouse anti-beta-Actin (8H10D10) (CST #3700) 1:10000). The membrane was washed three times with TBST, 5 minutes each. Incubation with secondary antibody was performed for 1 hour at RT (anti-rabbit IgG (Licor, 926-32211) 1:5000; anti-mouse IgG (LI-COR, 926-68070) 1:5000). The membrane was washed three times with 5 minutes each and lastly the LiCOR was read.

[2] = biological target: SMARCA2 (Homo sapiens, UniProt P51531); experiment: MSD SMARCA2 degradation in A549 cell line; assay type: cell-based; set-up: endogenous in cells; host or cells: A549; conditions: A549 cells, 24 hours; for DC50: read-out: SMARCA2 MSD A549 degradation 24h: Average external-Abs DC50
Protocol: Example 9. MSD SMARCA2 Degradation in A549 Cell Line
Cells were seeded into 96-well plates (A549 cells: 2×10^4 cells/well/100 ul media) abd incubated overnight. The next day, 200 nl compound were added into the intermediate plate with Echo (Labcyte 550) from source plate containing a 3-fold serial dilution from top concentration of 1 mM. The culture medium was changed with 80 ul of fresh medium and 80 ul of 2× compound solution was added into the well to make a final concentration of 1000 nM, 333.3 nM, 111.1 nM, 37.04 nM, 12.35 nM, 4.115 nM, 1.372 nM, 0.457 nM, 0.152 nM and 0 nM (DMSO). The wells were mixed and then incubated for 24 hours. The media was aspirated from the cultures and 60 ul pre-chilled PIPA lysis buffer (Boston BioProducts BP-115D) with protease/phosphatase inhibitor (Roche 05892791001/Roche 04906837001) was added into the well to lyze the cells for 20 minutes at 4° C. The MSD plate (L15XA) was coated with 40 ul cell lysate and incubated at 4° C. overnight. The next day, the plate was washed three times with TBST (CST #9997S), 150 ul/well. The MSD plates was blocked with 150 ul blocking buffer per well and shaked for 1 hr at RT, 600 rpm. The blocking buffer was 3% Blocker A (MSD, R93BA-4) in TBST. The MSD plate was washed three times with 150 ul/well of TBST and 25 ul/well of detection antibody (Rabbit anti-SMARCA2/BRM antibody, 100 μg/ml, ab223735) was added at final concentration of 1 ug/ml diluted in 1% Blocking buffer and shaken for 1 hour at RT, 600 rpm. The MSD plate was washed three times with 150 ul/well of TBST and 25 ul/well of SULFO-TAG anti-rabbit antibody (MSD, R32AB-1) was added at final concentration of 1 ug/ml diluted in 1% Blocking buffer and shaken for 1 hour at RT, 600 rpm. The MSD plate was washed three times with 150 ul/well of TBST and 150 ul/well of 2×MSD reading buffer diluted from 4× (MSD, R92TC-2) with water was added. Lastly, the MSD instrument was read.

T1 sequence (P51532 whole entry): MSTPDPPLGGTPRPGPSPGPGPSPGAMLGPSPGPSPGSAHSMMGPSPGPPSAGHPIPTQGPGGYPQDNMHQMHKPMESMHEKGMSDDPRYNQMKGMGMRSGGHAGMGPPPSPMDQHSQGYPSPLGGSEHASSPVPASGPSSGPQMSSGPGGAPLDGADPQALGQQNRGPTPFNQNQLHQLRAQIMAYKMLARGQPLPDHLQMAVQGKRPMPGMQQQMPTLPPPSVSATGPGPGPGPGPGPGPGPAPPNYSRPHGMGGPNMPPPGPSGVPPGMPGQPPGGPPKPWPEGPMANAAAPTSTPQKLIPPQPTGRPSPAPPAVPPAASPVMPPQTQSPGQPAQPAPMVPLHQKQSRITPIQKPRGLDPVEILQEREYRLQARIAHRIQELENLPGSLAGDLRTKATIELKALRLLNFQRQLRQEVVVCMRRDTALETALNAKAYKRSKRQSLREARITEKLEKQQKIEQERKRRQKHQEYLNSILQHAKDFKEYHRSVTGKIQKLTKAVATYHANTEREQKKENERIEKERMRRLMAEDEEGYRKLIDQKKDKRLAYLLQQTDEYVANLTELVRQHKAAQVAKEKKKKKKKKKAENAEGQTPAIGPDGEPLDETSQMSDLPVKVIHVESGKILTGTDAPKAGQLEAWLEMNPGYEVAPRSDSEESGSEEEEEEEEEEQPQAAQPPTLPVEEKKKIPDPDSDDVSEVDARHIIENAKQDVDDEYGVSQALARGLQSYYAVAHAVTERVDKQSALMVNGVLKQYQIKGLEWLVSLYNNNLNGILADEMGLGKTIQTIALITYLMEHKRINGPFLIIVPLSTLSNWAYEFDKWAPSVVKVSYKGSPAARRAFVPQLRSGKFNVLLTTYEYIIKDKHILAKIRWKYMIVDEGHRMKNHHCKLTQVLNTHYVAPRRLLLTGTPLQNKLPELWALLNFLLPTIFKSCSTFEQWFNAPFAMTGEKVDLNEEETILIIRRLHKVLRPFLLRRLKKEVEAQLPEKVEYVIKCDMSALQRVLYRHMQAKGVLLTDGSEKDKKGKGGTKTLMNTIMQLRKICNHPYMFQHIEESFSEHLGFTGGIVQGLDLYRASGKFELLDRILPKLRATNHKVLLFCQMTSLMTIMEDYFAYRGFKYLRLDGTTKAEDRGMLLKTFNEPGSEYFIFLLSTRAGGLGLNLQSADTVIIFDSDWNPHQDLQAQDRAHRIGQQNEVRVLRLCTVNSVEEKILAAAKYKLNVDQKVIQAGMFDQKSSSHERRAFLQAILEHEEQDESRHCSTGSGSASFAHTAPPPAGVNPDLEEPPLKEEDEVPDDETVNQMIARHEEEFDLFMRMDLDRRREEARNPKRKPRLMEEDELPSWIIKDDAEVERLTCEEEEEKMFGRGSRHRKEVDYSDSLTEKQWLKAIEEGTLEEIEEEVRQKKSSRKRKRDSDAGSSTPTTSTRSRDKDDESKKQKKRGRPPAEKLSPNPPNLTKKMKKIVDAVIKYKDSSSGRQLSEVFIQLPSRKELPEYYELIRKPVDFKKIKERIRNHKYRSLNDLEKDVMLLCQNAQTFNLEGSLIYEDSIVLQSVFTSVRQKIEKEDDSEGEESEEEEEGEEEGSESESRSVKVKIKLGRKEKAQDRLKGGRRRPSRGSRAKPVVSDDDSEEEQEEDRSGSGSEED
SMARCA2, sequence (P51531 whole entry): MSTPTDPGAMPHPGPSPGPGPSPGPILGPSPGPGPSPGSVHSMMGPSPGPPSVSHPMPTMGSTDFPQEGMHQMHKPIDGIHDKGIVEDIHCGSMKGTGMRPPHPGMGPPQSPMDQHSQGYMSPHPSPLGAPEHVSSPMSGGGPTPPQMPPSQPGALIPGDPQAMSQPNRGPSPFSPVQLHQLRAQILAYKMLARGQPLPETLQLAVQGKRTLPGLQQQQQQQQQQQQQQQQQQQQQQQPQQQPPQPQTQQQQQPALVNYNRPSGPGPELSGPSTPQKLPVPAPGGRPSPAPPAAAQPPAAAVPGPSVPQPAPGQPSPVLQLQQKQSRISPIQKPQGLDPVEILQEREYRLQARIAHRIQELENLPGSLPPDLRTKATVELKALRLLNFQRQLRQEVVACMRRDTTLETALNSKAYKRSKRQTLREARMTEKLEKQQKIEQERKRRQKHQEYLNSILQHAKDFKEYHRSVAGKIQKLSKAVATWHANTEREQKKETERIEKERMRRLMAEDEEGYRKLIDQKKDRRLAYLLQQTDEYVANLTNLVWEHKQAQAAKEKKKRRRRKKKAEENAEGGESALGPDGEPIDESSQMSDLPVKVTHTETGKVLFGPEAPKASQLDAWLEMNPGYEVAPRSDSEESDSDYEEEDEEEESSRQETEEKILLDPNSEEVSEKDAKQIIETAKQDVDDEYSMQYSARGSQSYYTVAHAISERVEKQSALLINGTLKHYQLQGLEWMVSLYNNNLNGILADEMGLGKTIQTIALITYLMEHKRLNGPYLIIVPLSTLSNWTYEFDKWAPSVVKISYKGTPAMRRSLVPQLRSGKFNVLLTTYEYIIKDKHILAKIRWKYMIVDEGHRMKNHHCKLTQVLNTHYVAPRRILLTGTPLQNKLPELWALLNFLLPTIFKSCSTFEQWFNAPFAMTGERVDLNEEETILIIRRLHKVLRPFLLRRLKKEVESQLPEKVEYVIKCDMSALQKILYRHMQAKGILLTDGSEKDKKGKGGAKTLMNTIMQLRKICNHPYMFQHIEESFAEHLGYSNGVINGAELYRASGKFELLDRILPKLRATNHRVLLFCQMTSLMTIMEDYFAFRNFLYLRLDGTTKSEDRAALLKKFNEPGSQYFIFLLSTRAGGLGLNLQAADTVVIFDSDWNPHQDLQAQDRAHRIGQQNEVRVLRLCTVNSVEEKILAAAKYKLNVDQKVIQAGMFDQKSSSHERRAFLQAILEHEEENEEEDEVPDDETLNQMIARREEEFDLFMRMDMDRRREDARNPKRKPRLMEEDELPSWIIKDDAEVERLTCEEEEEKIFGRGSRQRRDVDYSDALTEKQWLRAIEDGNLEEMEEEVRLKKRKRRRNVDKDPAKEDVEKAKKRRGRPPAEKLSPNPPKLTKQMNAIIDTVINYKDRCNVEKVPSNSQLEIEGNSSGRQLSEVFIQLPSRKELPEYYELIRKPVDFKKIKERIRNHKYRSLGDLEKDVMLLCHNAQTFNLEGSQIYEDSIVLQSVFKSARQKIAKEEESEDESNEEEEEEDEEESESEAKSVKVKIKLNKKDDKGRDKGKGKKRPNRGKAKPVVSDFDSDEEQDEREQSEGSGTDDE

Row | Structure (SMILES) | Dmax [1] [%] | DC50 [1] [nM] | Dmax [2] [%] | DC50 [2] [nM]
1 | Cc1ncsc1-c1ccc(CNC(=O)[C@@H]2C[C@@H](O)CN2C(=O)[C@@H](NC(=O)[C@H]2CC[C@@H](c3cnc(N4CCC(c5c[nH]c6nnc(-c7ccccc7O)cc56)CC4)nc3)CC2)C(C)(C)C)cc1 [I-45, (2S,4R)-4-hydroxy-1-((S)-2-((1s,4R)-4-(2-(4-(3-(2-hydroxyphenyl)-7H-pyrrolo[2,3-c]pyridazin-5-yl)piperidin-1-yl)pyrimidin-5-yl)cyclohexanecarboxamido)-3,3-dimethylbutanoyl)-N-(4-(4-methylthiazol-5-yl)benzyl)pyrrolidine-2-carboxamide] | > 90 | < 100 | 70 to 90 | 501 to 1000
2 | Cc1ncsc1-c1ccc(CNC(=O)[C@@H]2C[C@@H](O)CN2C(=O)[C@@H](NC(=O)CN(C)Cc2cnc(N3CCC(c4c[nH]c5nnc(-c6ccccc6O)cc45)CC3)nc2)C(C)(C)C)cc1 [I-50] | < 50 | > 1000 | < 50 | > 1000
3 | Cc1ncsc1-c1ccc(CNC(=O)[C@@H]2C[C@@H](O)CN2C(=O)[C@@H](NC(=O)C2(F)CC2)C(C)(C)C)c(OCCN2CCC(c3c[nH]c4nnc(-c5ccccc5O)cc34)CC2)c1 [I-47, (2S,4R)-1-((S)-2-(1-fluorocyclopropanecarboxamido)-3,3-dimethylbutanoyl)-4-hydroxy-N-(2-(2-(4-(3-(2-hydroxyphenyl)-7H-pyrrolo[2,3-c]pyridazin-5-yl)piperidin-1-yl)ethoxy)-4-(4-methylthiazol-5-yl)benzyl)pyrrolidine-2-carboxamide] | 70 to 90 | > 1000 | < 50 | > 1000
4 | Cc1ncsc1-c1ccc(CNC(=O)[C@@H]2C[C@@H](O)CN2C(=O)[C@@H](NC(=O)CN2CCC(c3cnc(N4CCC(c5c[nH]c6nnc(-c7ccccc7O)cc56)CC4)nc3)CC2)C(C)(C)C)cc1 [I-53] | 70 to 90 | < 100 | 70 to 90 | 501 to 1000
5 | CN(CC#Cc1cnc(N2CCC(c3c[nH]c4nnc(-c5ccccc5O)cc34)CC2)nc1)CCCc1ccc2c(c1)n(C)c(=O)n2C1CCC(=O)NC1=O (centres unmarked) [I-3] | – | – | < 50 | > 1000
6 | Cc1ncsc1-c1ccc(CNC(=O)[C@@H]2C[C@@H](O)CN2C(=O)[C@@H](NC(=O)C2(F)CC2)C(C)(C)C)c(OCCCCCCN2CCC(c3c[nH]c4nnc(-c5ccccc5O)cc34)CC2)c1 [I-48] | < 50 | 501 to 1000 | < 50 | > 1000
7 | NCC#Cc1cnc(N2CCC(c3c[nH]c4nnc(-c5ccccc5O)cc34)CC2)nc1 [I-55, 2-(5-(1-(5-(3-aminoprop-1-yn-1-yl)pyrimidin-2-yl)piperidin-4-yl)-7H-pyrrolo[2,3-c]pyridazin-3-yl)phenol] | > 90 | > 1000 | < 50 | > 1000
8 | Cc1ncsc1-c1ccc(CNC(=O)[C@@H]2C[C@@H](O)CN2C(=O)[C@@H](NC(=O)C2(F)CC2)C(C)(C)C)c(OCCCCCCCCN2CCC(c3c[nH]c4nnc(-c5ccccc5O)cc34)CC2)c1 [I-49] | 70 to 90 | > 1000 | < 50 | > 1000

The next lines start with the values.

Row | Dmax [1] [%] | DC50 [1] [nM] | Dmax [2] [%] | DC50 [2] [nM] | Structure (SMILES)
9 | – | – | < 50 | > 1000 | CN(CCCc1cnc(N2CCC(c3c[nH]c4nnc(-c5ccccc5O)cc34)CC2)nc1)CCCc1ccc2c(c1)n(C)c(=O)n2C1CCC(=O)NC1=O (centres unmarked) [I-2]
10 | 50 to 70 | > 1000 | < 50 | > 1000 | Cc1ncsc1-c1ccc(CNC(=O)[C@@H]2C[C@@H](O)CN2C(=O)[C@@H](NC(=O)CCCCCN(C)Cc2cnc(N3CCC(c4c[nH]c5nnc(-c6ccccc6O)cc45)CC3)nc2)C(C)(C)C)cc1 [I-52, (2S,4R)-4-hydroxy-1-((S)-2-(6-(((2-(4-(3-(2-hydroxyphenyl)-7H-pyrrolo[2,3-c]pyridazin-5-yl)piperidin-1-yl)pyrimidin-5-yl)methyl)(methyl)amino)hexanamido)-3,3-dimethylbutanoyl)-N-(4-(4-methylthiazol-5-yl)benzyl)pyrrolidine-2-carboxamide]
11 | > 90 | > 1000 | < 50 | > 1000 | Cc1ncsc1-c1ccc(CNC(=O)[C@@H]2C[C@@H](O)CN2C(=O)[C@@H](NC(=O)CN2CCC(c3cc(N4CCC(c5c[nH]c6nnc(-c7ccccc7O)cc56)CC4)ncn3)CC2)C(C)(C)C)cc1 [I-54, (2S,4R)-4-hydroxy-1-((S)-2-(2-(4-(6-(4-(3-(2-hydroxyphenyl)-7H-pyrrolo[2,3-c]pyridazin-5-yl)piperidin-1-yl)pyrimidin-4-yl)piperidin-1-yl)acetamido)-3,3-dimethylbutanoyl)-N-(4-(4-methylthiazol-5-yl)benzyl)pyrrolidine-2-carboxamide]
12 | < 50 | > 1000 | < 50 | > 1000 | Cc1ncsc1-c1ccc(CNC(=O)[C@@H]2C[C@@H](O)CN2C(=O)[C@@H](NC(=O)CCCN(C)Cc2cnc(N3CCC(c4c[nH]c5nnc(-c6ccccc6O)cc45)CC3)nc2)C(C)(C)C)cc1 [I-51]
